Reference: PMC7098370 (Toxicological Sciences, 2020)
Like-named read-outs stand apart in the source and are kept apart here. Marks after values point to notes of the source that are not given here.

Tests used:
[1] = Plasma toxicokinetic study; assay type: in vivo, rat; conditions: for C max / K el / t 1/2 / Bioavailability (absolute): 10 mg test item/kg PO (2.48 mg Co/kg); for Bioavailability (absolute): vs CoCl2 IV
[2] = Mass balance study: urinary and fecal Co excretion after single oral gavage; assay type: in vivo, rat; conditions: single oral bolus 10 mg/kg bw (2.48 mg Co/kg bw), 72 h
[3] = Target organ study: tissue distribution of cobalt after 90-day oral exposure; assay type: in vivo, rat; conditions: 90-day exposure to 7.44 mg Co/kg bw/day
[4] = tested on: Crl:CD(SD) rats; experiment: Subchronic 90-day oral RDT study with reproductive toxicity screening; assay type: in vivo, rat; conditions: for erythroid hyperplasia in the bone marrow, incidence: 90 days; for body weight at autopsy reduced: 90-day exposure; for dose level from which hematological parameters were significantly affected: 90-day oral
[5] = tested on: rats; conditions: oral, ref Speijers et al. (1982), cited from earlier work
[6] = oral administration; ref Kirchgessner et al., 1994; cited from earlier work
[7] = 0.08–0.19 mg Co/kg bw/day, 3-month, ref Tvermoes et al., 2014, cited from earlier work
[8] = tested on: rats; conditions: cited from earlier work
[9] = tested on: female mice; conditions: 15-day exposure, ref Finley et al. (2012), Shrivastava et al., 1996; cited from earlier work
[10] = tested on: children with sickle cell anemia; conditions: 1.4–1.8 mg Co/kg/day, ref Gross et al., 1955, Kriss et al.; cited from earlier work
[11] = Bioelution in simulated gastric fluid
[12] = Bioelution in simulated intestinal fluid; conditions: simulated intestinal fluid pH 7.4, 2 h
[13] = cobalt dichloride hexahydrate vs tricobalt tetraoxide
[14] = females, 0.74 mg Co/kg bw/day, end of 90-day oral exposure, experimental group
[15] = females, 2.48 mg Co/kg bw/day, end of 90-day oral exposure, experimental group
[16] = females, 7.44 mg Co/kg bw/day, end of 90-day oral exposure, experimental group
[17] = females, 7.44 mg Co/kg bw/day, recovery group, end of 28-day recovery period
[18] = females, 7.44 mg Co/kg bw/day, recovery group, end of 90-day oral exposure
[19] = males, 0.74 mg Co/kg bw/day, end of 90-day oral exposure, experimental group
[20] = males, 2.48 mg Co/kg bw/day, end of 90-day oral exposure, experimental group
[21] = males, 7.44 mg Co/kg bw/day, end of 90-day oral exposure, experimental group
[22] = males, 7.44 mg Co/kg bw/day, recovery group, end of 28-day recovery period
[23] = males, 7.44 mg Co/kg bw/day, recovery group, end of 90-day oral exposure
[24] = listed as Co Dichloride Hexahydrate

O.O.O.O.O.O.[Cl-].[Cl-].[Co+2] [CoCl2, Cobalt dichloride hexahydrate]
C max ([1]; females): 2.61 ng/mL | K el ([1]; females): 0.0508 h⁻¹ | t 1/2 ([1]; females): 13.7 h | Bioavailability (absolute) ([1]; females): ~12% | Bioavailability (absolute) ([1]; females, listed as CoCl2.6H2O): 11.7 (absolute) % | C max ([1]; males): 2.51 ng/mL | K el ([1]; males): 0.0489 h⁻¹ | t 1/2 ([1]; males): 14.2 h | Bioavailability (absolute) ([1]; males): approximately 7% | Bioavailability (absolute) ([1]; males, listed as CoCl2.6H2O): 6.81 (absolute) % | Bioavailability calculated from AUC as % of CoCl2 IV AUC, average of m + f: absolute bioavailability ([1]; oral, rats, average of males and females): Absolute bioavailability 9.3% | oral bioavailability ([1]; single oral bolus, rats, males and females not distinguished): ≤ 12% | Fecal Excretion (%) ([2]; females): 98.5 % of Co applied | Sum of Urinary and Fecal Excretion (%) ([2]; females): 110.7 % of Co applied | Urinary Excretion (%) ([2]; females): 12.2 % of Co applied | Fecal Excretion (%) ([2]; males): 82.4 % of Co applied | Sum of Urinary and Fecal Excretion (%) ([2]; males): 99.5 % of Co applied | Urinary Excretion (%) ([2]; males): 17.1 % of Co applied | elevation of tissue Co concentration vs control, most tissues and organs [3]: around 20 fold | erythroid hyperplasia in the bone marrow, incidence ([4]; 2.48 mg Co/kg bw/day, females): 7/10 | erythroid hyperplasia in the bone marrow, incidence ([4]; 2.48 mg Co/kg bw/day, males): 4/10 | erythroid hyperplasia in the bone marrow, incidence ([4]; 7.44 mg Co/kg bw/day, both sexes): 7/10 | premature deaths ([4]; 90-day oral gavage, all doses): None of the animals treated with any dose of CoCl2 died prematurely | LOAEL (systemic) ([4]; 90-day oral gavage, rats): 2.5 mg Co/kg bw/day | NOAEL (reproductive) ([4]; 90-day oral gavage, rats): > 7.5 mg Co/kg bw/day | difference in RDT lowest observed adverse effect level (factor) [4, 13]: 310 | HGB, %Diff vs control [4, 14]: +0.9% | HGB, mean [4, 14]: 9.62 mmol/L | RBC, %Diff vs control [4, 14]: +0.6% | RBC, mean [4, 14]: 8.38 ×10E6/µl | Reti, %Diff vs control [4, 14]: −18.9% | Reti, mean [4, 14]: 12 %0 of RBC | HGB, %Diff vs control [4, 15]: +0.3% | HGB, mean [4, 15]: 9.56 mmol/L | RBC, %Diff vs control [4, 15]: −2.6% | RBC, mean [4, 15]: 8.11 ×10E6/µl | Reti, %Diff vs control [4, 15]: +33.1% | Reti, mean [4, 15]: 19.7 %0 of RBC | body weight at autopsy reduced ([4]; females, 7.44 mg Co/kg bw/day): 9% | HGB, %Diff vs control [4, 16]: +13.4% | HGB, mean [4, 16]: 10.81 mmol/L | RBC, %Diff vs control [4, 16]: +9.8% | RBC, mean [4, 16]: 9.15 ×10E6/µl | Reti, %Diff vs control [4, 16]: +4.1% | Reti, mean [4, 16]: 15.4 %0 of RBC | HCT, mean [4, 17]: • 45.02 • .841% | HGB, mean [4, 17]: • 9.56 • .936 mmol/l | RBC, mean [4, 17]: • 8.01 • .948 ×10E6/µl | Reti, mean [4, 17]: • 15 • .232 %0 of RBC | HCT, mean [4, 18]: • 52.3 ^** • .0025% | HGB, mean [4, 18]: • 11.1 ^** • .0017 mmol/l | RBC, mean [4, 18]: • 9.648 ^* • .030 ×10E6/µl | Reti, mean [4, 18]: • 15.6 • .933 %0 of RBC | body weight reduced at the end of the 4-week recovery period ([4]; females, 7.44 mg Co/kg bw/day, test day 118): 13% | dose level from which hematological parameters were significantly affected ([4]; females): 7.44 mg/kg bw/day | changes in hematological parameters compared with control ([4]; male rats, 90-day exposure at 7.44 mg Co/kg bw/day): up to 30% | HCT, %Diff vs control [4, 19]: +1.2% | HCT, mean [4, 19]: 50.51% | HGB, %Diff vs control [4, 19]: +1.4% | HGB, mean [4, 19]: 10.50 mmol/L | PLT, %Diff vs control [4, 19]: −13.5% | PLT, mean [4, 19]: 793.6 ×10E3/µl | RBC, %Diff vs control [4, 19]: −1.4% | RBC, mean [4, 19]: 9.33 ×10E6/µl | Reti, %Diff vs control [4, 19]: +7.8% | Reti, mean [4, 19]: 15.2 %0 of RBC | HCT, %Diff vs control [4, 20]: +10.3% | HCT, mean [4, 20]: 55.07% | HGB, %Diff vs control [4, 20]: +10.7% | HGB, mean [4, 20]: 11.46 mmol/L | PLT, %Diff vs control [4, 20]: −13.9% | PLT, mean [4, 20]: 789.2 ×10E3/µl | RBC, %Diff vs control [4, 20]: +9.2% | RBC, mean [4, 20]: 10.33 ×10E6/µl | Reti, %Diff vs control [4, 20]: −23.4% | Reti, mean [4, 20]: 10.8 %0 of RBC | body weight at autopsy reduced ([4]; males, 7.44 mg Co/kg bw/day): 11% | HCT, %Diff vs control [4, 21]: +24.2% | HCT, mean [4, 21]: 61.98% | HGB, %Diff vs control [4, 21]: +25.6% | HGB, mean [4, 21]: 13.00 mmol/L | PLT, %Diff vs control [4, 21]: −30.5% | PLT, mean [4, 21]: 637.1 ×10E3/µl | RBC, %Diff vs control [4, 21]: +18.9% | RBC, mean [4, 21]: 11.25 ×10E6/µl | Reti, %Diff vs control [4, 21]: −25.5% | Reti, mean [4, 21]: 10.5 %0 of RBC | HCT, mean [4, 22]: • 49.58 • .334% | HGB, mean [4, 22]: • 10.64 • .087 mmol/l | PLT, mean [4, 22]: • 917.6 • .551 ×10E3/µl | RBC, mean [4, 22]: • 9.086 • .373 ×10E6/µl | Reti, mean [4, 22]: • 15.1 • .0544 %0 of RBC | HCT, mean [4, 23]: • 58.68** • .002% | HGB, mean [4, 23]: • 12.74** • .0015 mmol/l | PLT, mean [4, 23]: • 727.2 • .223 ×10E3/µl | RBC, mean [4, 23]: • 10.89** • .0022 ×10E6/µl | Reti, mean [4, 23]: • 15.6 • .400 %0 of RBC | dose level from which hematological parameters were significantly affected ([4]; males): 2.48 mg Co/kg bw/day | Acute LD50 (mg Co/kg bw) [5]: 190 mg Co/kg bw | Acute LD50 (mg substance/kg bw) [5]: below 1000 mg substance/kg bw | Acute LD50 (mg substance/kg bw) [5, 24]: 766 [Speijers et al. (1982)] mg substance/kg bw | absorbed Co excreted in the feces via the bile [6]: around 1% | absorption of Co ([7]; men): 20% | absorption of Co ([7]; women): 45% | dose at which adverse cardiac effects were observed ([8]; male SD rats, 3-month exposure, ref Domingo et al., 1984): 32 mg Co/kg bw/day | daily dose at which hematological effects were reported ([8]; rats, 7 days, ref Shrivastava et al., 2010): 12.5 mg Co/kg/day | dose at which histopathological changes in the thyroid were reported [9]: approximately 50 mg Co/kg bw/day | thyroid effects [10]: decrease in iodine uptake and the development of goiters | difference in in vitro bioaccessibility (factor) [11, 13]: 440 | Bioelution of Co in gastric fluid (% release), 2 h ([11]; simulated gastric fluid pH 1.5, 2 h, 37°C): 98.5 % release | Bioelution of Co in intestinal fluid (% release) [12]: 79 (2 h) % release | Bioelution of Co in intestinal fluid / cobalt release (µg Co/g sample) [12, 24]: 198 700 (2 h) µg Co/g sample
